From patent US20220306647A1, “NOVEL INDOLE-2-CARBOXAMIDES ACTIVE AGAINST THE HEPATITUS B VIRUS (HBV)” (AICURIS GMBH & CO. KG, priority 2019, published 2022) come the findings set out here.

The target of assay [1] is T1, HBV core protein (C-terminal truncated core protein, 149 amino acids of the N-terminal assembly domain, BODIPY-FL labelled) (UniProt P03146).
T1 construct: fused on or other part: A single cysteine added after residue 149, at position 150; It carries the BODIPY-FL maleimide label
T1 sequence (P03146 whole entry, the tested form may be a part): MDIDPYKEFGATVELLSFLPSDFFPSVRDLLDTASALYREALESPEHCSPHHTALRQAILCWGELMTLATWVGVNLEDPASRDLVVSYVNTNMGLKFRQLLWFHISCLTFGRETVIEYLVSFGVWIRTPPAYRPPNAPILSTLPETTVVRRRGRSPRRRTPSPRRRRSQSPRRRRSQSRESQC
The experiment in a line: Biochemical capsid assembly assay (fluorescence quenching). The method, boiled down: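 Fluorescence quenching of BODIPY-FL-labelled core dimers (1.0 to 2.0 μM) in 50 mM HEPES pH 7.5; compounds at 8 concentrations, 0.5 log-unit dilutions from top 100, 31.6 or 10 μM, 0.5% DMSO. Assembly started with NaCl to […]; fluorescence (ex 477/em 525 nm) read after 6 min. EC50 by non-linear regression.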

The test system of a further assay is HBV (HepAD38 cells). The assay can be described thus: HBV replication assay: determination of HBV DNA from the supernatants of HepAD38 cells. Format: cell-based. The settings on record: Hepatitis B virus, 144 h, HBV DNA in HepAD38 supernatant at day 6, qPCR, read-out: Cell activity. The method, boiled down: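 HepAD38 cells seeded without tetracycline and treated with half-log compound dilutions; tetracycline-treated wells serve as cell control. On day 6, supernatant HBV DNA was purified and quantified by real-time PCR against plasmid standards; EC50 from non-linear regression of relative copy numbers, three experiments in triplicate.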
In general terms: Real-time PCR tracks product formation cycle by cycle.

[2] abbreviates: assembly started with NaCl, fluorescence read after 6 min, read-out: Assembly activity.

Each structure is given as a SMILES string. Read-outs that look alike come from different tables or passages of the source. Where only a bound is given, the exact number is not on record here.

Consider `C[C@@H](NC(=O)c1noc2c1CN(C(=O)c1cc3c(F)c(F)ccc3[nH]1)CC2)C(F)(F)F` [Example 105, 5-(4,5-difluoro-1H-indole-2-carbonyl)-N-[(2R)-1,1,1-trifluoropropan-2-yl]-4H,5H,6H,7H-[1,2]oxazolo[4,5-c]pyridine-3-carboxamide], for which the IC50 in assay [1] (setting [2]) is < 5 µM. Further, the EC50 with HBV (HepAD38 cells) is < 1 µM.
Turning to `Cc1c(F)ccc2[nH]c(C(=O)N3CCc4onc(C(=O)N[C@H](C)C(F)(F)F)c4C3)cc12` [Example 106, 5-(5-fluoro-4-methyl-1H-indole-2-carbonyl)-N-[(2R)-1,1,1-trifluoropropan-2-yl]-4H,5H,6H,7H-[1,2]oxazolo[4,5-c]pyridine-3-carboxamide], in assay [1] (setting [2]), the IC50 is < 5 µM. Further, the EC50 in the assay on HBV (HepAD38 cells) is < 1 µM.
Turning to `Cc1cc(F)cc2[nH]c(C(=O)N3CCc4onc(C(=O)N[C@H](C)C(F)(F)F)c4C3)cc12` [Example 107, 5-(6-fluoro-4-methyl-1H-indole-2-carbonyl)-N-[(2R)-1,1,1-trifluoropropan-2-yl]-4H,5H,6H,7H-[1,2]oxazolo[4,5-c]pyridine-3-carboxamide], in assay [1] (setting [2]), the IC50 was < 5 µM. Also, the EC50 with HBV (HepAD38 cells) is < 1 µM.
For the molecule `CN(C(=O)c1noc2c1CN(C(=O)c1cc3ccccc3[nH]1)CC2)C1([C@H]2OC[C@H](N)CO2)CC1` [Example 108, 5-(1H-indole-2-carbonyl)-N-methyl-N-{1-[(2r,5r)-5-amino-1,3-dioxan-2-yl]cyclopropyl}-4H,5H,6H,7H-[1,2]oxazolo[4,5-c]pyridine-3-carboxamide], the IC50 in assay [1] (setting [2]) is < 5 µM. Besides, the EC50 in the assay with HBV (HepAD38 cells) was < 1 µM.
As to `CN(C(=O)c1onc2c1CN(C(=O)c1cc3ccccc3[nH]1)CC2)C1(c2ccc(C(=O)O)cc2)CC1` [Example 109, 4-{1-[N-methyl-5-(1H-indole-2-carbonyl)-4H,5H,6H,7H-[1,2]oxazolo[4,3-c]pyridine-3-amido]cyclopropyl}benzoic acid], the IC50 in assay [1] (setting [2]) is < 5 µM. Moreover, the EC50 in the assay with HBV (HepAD38 cells) is < 1 µM.
`CN(C(=O)c1cnn2c1CN(C(=O)c1cc3c(Cl)c(F)c(Cl)cc3[nH]1)CC2)C1(c2ccc(C(=O)O)cc2)CC1` [Example 110, 4-{1-[N-methyl-5-(4,6-dichloro-5-fluoro-1H-indole-2-carbonyl)-4H,5H,6H,7H-pyrazolo [1,5-a]pyrazine-3-amido]cyclopropyl}benzoic acid]: in assay [1] (read-out: Assembly activity, assembly started with NaCl, fluorescence read after 6 min), the IC50 was < 5 µM. The EC50 with HBV (HepAD38 cells) was < 1 µM.
